Read-outs that look alike come from different tables or passages of the source. Positions of bridges follow the written chain, without caps; N, C: chain ends. Non-standard residues stand in square brackets, D forms with d. Residues, ends and D or L forms follow the SMILES beside them. *: point of attachment. Chlorambucil = O=C(CCCc1ccc(N(CCCl)CCCl)cc1)*; NH(4-Br-phenethyl) = Brc1ccc(CCN*)cc1; X1 = O=C(CCCc1ccc(N(CCO)CCCl)cc1)*; 1Naphthoyl = O=C(c1cccc2ccccc12)*; Bz = O=C(c1ccccc1)*; NHPr = CCCN*
Key:
[1] = molecular target: T1, BBN receptor (Homo sapiens, UniProt P30550); assay: Inhibition of [125I]Tyr4-BBN binding to SCLC NCI-H345 membranes; details: for inhibition of BBN binding to SCLC membranes (in words): radiolabelled Tyr4-BBN
T1 construct: endogenous in cells; host or cells: NCI-H345 (human SCLC)
T1 sequence (P30550 whole entry): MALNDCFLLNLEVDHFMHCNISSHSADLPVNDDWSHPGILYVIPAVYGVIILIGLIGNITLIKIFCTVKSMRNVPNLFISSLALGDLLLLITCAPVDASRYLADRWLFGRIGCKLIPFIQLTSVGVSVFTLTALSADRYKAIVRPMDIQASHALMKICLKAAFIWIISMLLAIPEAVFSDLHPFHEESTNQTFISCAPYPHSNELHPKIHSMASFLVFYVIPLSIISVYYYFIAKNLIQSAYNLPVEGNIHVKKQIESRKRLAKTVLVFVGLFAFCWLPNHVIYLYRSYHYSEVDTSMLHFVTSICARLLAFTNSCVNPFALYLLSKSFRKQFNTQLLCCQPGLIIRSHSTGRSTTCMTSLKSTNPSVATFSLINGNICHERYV
Procedure: (§1) Acinar cells from rat pancreas bind BBN and secrete amylase when treated with BBN. The ability of potential antagonists to bind to rat pancreatic acinar cells was examined by determining the ability of the compounds to inhibit the binding of radiolabelled BBN. […] Finally, antagonist activity of the compounds was determined by measuring the ability of compounds to prevent the release of amylase from cells in response to BBN. […] This cell line was also used to evaluate biological activities of potential antagonists derived from the structures of BBN and GRP. The binding of synthetic compounds to cellular membranes prepared from NCI-H345 was determined. The ability of potential antagonists to block the BBN-stimulated increase in cytosolic levels of Ca^++ was determined. Compounds showing inhibition were further tested to determine the effect on growth of two human SCLC cell lines in culture.
Potential antagonists were also evaluated for their ability to inhibit the binding of radiolabelled Tyr^4 -BBN to SCLC membranes and for their effects on BBN signal transduction in SCLC cells.

[2] = molecular target: T1, BBN receptor; assay: Cytosolic Ca++ assay in SCLC cell line NCI-H345; type: cell-based; design: key: antagonized (A); had no effect (--) on the ability of 10 nM BBN to; details: compound 10 μM; 10 nM BBN elevation of cytosolic Ca++
Procedure: SCLC cell line NCI-H345 was cultured for two days in medium containing 10^-8 M hydrocortisone, 5 μg/ml bovine insulin, 10 μg/ml human transferrin, 10^-8 M β-estradiol and 3×10^-8 M Na2 SeO3. The cells were harvested and washed, resuspended in medium containing 20 mM HEPES, pH 7.4, and loaded with 5 μM Fura 2 AM (Calbiochem) for 30 minutes. The cells were centrifuged at 150×g for 10 minutes to remove extracellular dye and resuspended and placed in a spectrofluorometer cell equipped with stirring and 37° C. heating. The emission was read at 510 nm with 340 excitation (Moody et al., Biochem. Biophys. Res. Commun. 147:189 (1987)). The response of compounds at 5 μM was measured initially as a screen and compared to that of 10 nM BBN. The response of varying concentrations of peptide (nM to μM) in the presence of 10 nM BBN was determined.

[3] = tested on: NCI-H345; assay: Clonagenic assay, colony formation of NCI-H345; type: cell-based, human; design: key to Growth: significantly reduced (R); had no effect (--) on th; details: compound 1 μM; clonal growth of a human tumor cell line
Procedure: The effect of 1 to 1000 nM concentration of peptides on growth of NCI-H345 colonies stimulated by 10 nM BBN was measured in the agarose cloning system (Mahoud et al., Cancer Res. 51:1798 (1991); Staley et al., Peptides 12:145-149 (1991)). […] On the day of the assay, cells were harvested, centrifuged and suspended in the buffer. The agarose cloning system consisted of 3 ml of 0.5% agarose in SIT medium with 5% fetal bovine serum in six well plates. To a top layer, consisting of 3 ml HITES medium in 0.3% agarose, the peptides at two times concentration and 6×10^4 single viable cells, were added. For each peptide concentration, triplicate wells were plated. After two weeks, 1 ml of 0.1% p-iodo-nitrotetrazolium violet was added, and after 16 hours at 37° C., the plates were screened for colony formation; the number of colonies larger than […] in diameter were counted using a Bausch and Lomb Omnicon image analysis system.

[4] = molecular target: T2, BBN receptor (Rattus norvegicus, UniProt P52500); assay: Stimulation of amylase release from rat pancreatic acinar cells by the compound alone (agonist test); type: cell-based
T2 sequence (P52500 whole entry): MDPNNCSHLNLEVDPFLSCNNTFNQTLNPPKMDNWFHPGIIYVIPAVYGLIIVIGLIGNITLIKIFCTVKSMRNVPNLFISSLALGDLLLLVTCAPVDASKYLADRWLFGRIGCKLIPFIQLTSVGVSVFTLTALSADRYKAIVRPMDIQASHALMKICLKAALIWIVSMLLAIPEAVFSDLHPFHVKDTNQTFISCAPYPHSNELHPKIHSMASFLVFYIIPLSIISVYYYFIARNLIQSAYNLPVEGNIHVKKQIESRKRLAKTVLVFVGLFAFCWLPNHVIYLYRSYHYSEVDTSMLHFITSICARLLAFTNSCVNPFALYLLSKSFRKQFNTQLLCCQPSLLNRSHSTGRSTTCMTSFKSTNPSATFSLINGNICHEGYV

[5] = molecular target: T2, BBN receptor; assay: Inhibition of bombesin-stimulated amylase release from rat pancreatic acini; type: cell-based; details: half-maximal inhibition of bombesin-stimulated amylase release from acini; mean ± s.e.m.
Procedure: as §1
The incubation solution contained 1% albumin and the wash solution contained 0.2% albumin. The solution was equilibrated with 100% O2. Dispersed acini were suspended in 20 ml of solution. Samples of 1 ml were incubated in the presence of various concentrations of compounds in the presence of 1 nM bombesin. After the first incubation the samples were washed 4 times with wash solution at 4° C. The acini were then resuspended in fresh incubation buffer and incubated at 37° C. Amylase release was measured by the Phadebas reagent. Amylase secretion during a given incubation was expressed as the percentage of amylase present in the acini at the beginning of that incubation that was released into the extracellular medium.

[6] = molecular target: T2, BBN receptor; assay: Inhibition of 125I bombesin binding to rat pancreatic acinar cells; details: inhibition of 125I bombesin binding; IC50 divided by radioligand concentration
Procedure: Inhibition of equilibrium binding of ^125 I labeled bombesin to acinar membranes by the compounds was determined. The Kd was determined by dividing IC50 (the concentration of synthetic compound required to inhibit 50% of the specific binding of labelled BBN) by the concentration of radiolabeled peptide.

[7] = molecular target: T2, BBN receptor; type: cell-based; details: PTC 821 1 μM
Procedure: (§2) Dispersed acinar cells from rat pancreas were prepared as indicated above.

[8] = molecular target: T3, CCK Receptor (Rattus norvegicus, UniProt P30551); assay: Specificity test, CCK-stimulated amylase secretion of rat pancreatic acinar cells after wash; details: PTC 821 1 μM
T3 sequence (P30551 1-444): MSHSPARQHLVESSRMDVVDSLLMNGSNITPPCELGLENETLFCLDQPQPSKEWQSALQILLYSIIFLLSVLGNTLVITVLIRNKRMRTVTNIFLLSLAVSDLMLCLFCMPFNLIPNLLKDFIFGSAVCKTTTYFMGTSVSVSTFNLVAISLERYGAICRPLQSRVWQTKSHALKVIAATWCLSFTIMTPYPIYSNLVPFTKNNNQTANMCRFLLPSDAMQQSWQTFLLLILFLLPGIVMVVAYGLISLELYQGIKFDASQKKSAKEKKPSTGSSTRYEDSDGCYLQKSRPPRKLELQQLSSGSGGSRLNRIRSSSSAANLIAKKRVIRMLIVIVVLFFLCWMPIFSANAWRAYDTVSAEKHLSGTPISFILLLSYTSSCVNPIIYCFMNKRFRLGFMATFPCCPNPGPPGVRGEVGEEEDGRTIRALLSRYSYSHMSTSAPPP
Procedure: as §2

[9] = 50% inhibition of specific [125I]Tyr4-BBN binding, NCI-H345, read-out: IC50

IC50 [1, 9]	Compound	Ca++ effect [2]	EC50 [4]	IC50 [5]	Kd [6]	IC50 [1]	also measured
4 µM	CCCNC(=O)[C@H]1CCC(=O)NCCCC[C@H](NC(C)=O)C(=O)N[C@@H](Cc2c[nH]c3ccccc23)C(=O)N[C@@H](C)C(=O)N[C@@H](C(C)C)C(=O)N[C@H](C)C(=O)N[C@@H](Cc2c[nH]cn2)C(=O)N1 [PCT 812] (Ac-KWAV[dA]H[dE]-NHPr; lactam 1-7)	A					inhibition of BBN binding to SCLC membranes (in words) [1]: only weak inhibition of BBN binding; Growth [3]: R
> 10 µM	CC(=O)N[C@H]1CCCCNC(=O)[C@H](CC(C)C)NC(=O)[C@H](Cc2c[nH]cn2)NC(=O)[C@H](C)NC(=O)[C@H](C(C)C)NC(=O)[C@H](C)NC(=O)[C@H](Cc2c[nH]c3ccccc23)NC(=O)[C@H](CCC(N)=O)NC(=O)[C@H](CC(N)=O)NC1=O [PTC 803] (Ac-KNQWAVAHL; lactam 1-C)	--	> 3 µM	> 3 µM	> 3 µM		
6 µM	CC(=O)N[C@@H]1CCCCNC(=O)[C@H](CC(C)C)NC(=O)[C@H](Cc2c[nH]cn2)NC(=O)[C@@H](C)NC(=O)[C@H](C(C)C)NC(=O)[C@H](C)NC(=O)[C@H](Cc2c[nH]c3ccccc23)NC(=O)[C@H](CCC(N)=O)NC(=O)[C@H](CC(N)=O)NC1=O [PTC 804] (Ac-[dK]NQWAV[dA]HL; lactam 1-C)	--	> 3 µM	> 3 µM	> 3 µM		inhibition of BBN binding to SCLC membranes (in words) [1]: only weak inhibition of BBN binding
> 10 µM	CC(=O)N[C@@H]1CCCCNC(=O)[C@H](CC(C)C)NC(=O)[C@H](Cc2c[nH]cn2)NC(=O)[C@H](C)NC(=O)[C@H](C(C)C)NC(=O)[C@H](C)NC(=O)[C@H](Cc2c[nH]c3ccccc23)NC(=O)[C@H](CCC(N)=O)NC(=O)[C@H](CC(N)=O)NC1=O [PTC 805] (Ac-[dK]NQWAVAHL; lactam 1-C)	--	> 3 µM	> 3 µM	> 3 µM		
	CC(=O)N[C@H]1CCCCNC(=O)[C@H](CC(C)C)NC(=O)[C@H](Cc2c[nH]cn2)NC(=O)[C@@H](C)NC(=O)[C@H](C(C)C)NC(=O)[C@H](C)NC(=O)[C@H](Cc2c[nH]c3ccccc23)NC(=O)[C@H](CCC(N)=O)NC(=O)[C@H](CC(N)=O)NC1=O [PTC 806] (Ac-KNQWAV[dA]HL; lactam 1-C)		> 3 µM	> 3 µM	> 3 µM		
	CC(C)C[C@@H]1NC(=O)[C@H](Cc2c[nH]cn2)NC(=O)[C@@H](C)NC(=O)[C@H](C(C)C)NC(=O)[C@H](C)NC(=O)[C@H](Cc2c[nH]c3ccccc23)NC(=O)[C@H](CCC(N)=O)NC(=O)[C@H](CC(N)=O)NC(=O)[C@H](NC(=O)c2ccccc2)CCCCNC1=O [PTC 807] (Bz-[dK]NQWAV[dA]HL; lactam 1-C)	--					
	CC(C)C[C@@H]1NC(=O)[C@H](Cc2c[nH]cn2)NC(=O)[C@@H](C)NC(=O)[C@H](C(C)C)NC(=O)[C@H](C)NC(=O)[C@H](Cc2c[nH]c3ccccc23)NC(=O)[C@H](CCC(N)=O)NC(=O)[C@H](CC(N)=O)NC(=O)[C@H](NC(=O)c2cccc3ccccc23)CCCCNC1=O [PTC 808] (1Naphthoyl-[dK]NQWAV[dA]HL; lactam 1-C)	--					
	CCOC(=O)[C@H](CC(C)C)NC(=O)[C@H](Cc1c[nH]cn1)NC(=O)[C@@H](C)NC(=O)[C@@H](NC(=O)[C@H](C)NC(=O)[C@H](Cc1c[nH]c2ccccc12)NC(=O)[C@H](CCC(N)=O)NC(=O)[C@H](CC(N)=O)NC(=O)CCCc1ccc(N(CCO)CCCl)cc1)C(C)C [PTC 815B] (X1-NQWAV[dA]HL-OEt)					0.045 µM	
	CCOC(=O)[C@H](CC(C)C)NC(=O)[C@H](Cc1c[nH]cn1)NC(=O)[C@@H](C)NC(=O)[C@@H](NC(=O)[C@H](C)NC(=O)[C@H](Cc1c[nH]c2ccccc12)NC(=O)[C@H](CCC(N)=O)NC(=O)[C@H](CC(N)=O)NC(=O)CCCc1ccc(N(CCCl)CCCl)cc1)C(C)C [PTC 815] (Chlorambucil-NQWAV[dA]HL-OEt)		> 3 µM	0.0085 ± 0.0005 µM	0.0107 ± 0.0034 µM	0.035 µM	
	CC(=O)N[C@@H](Cc1c[nH]cn1)C(=O)N[C@@H](Cc1c[nH]c2ccccc12)C(=O)N[C@@H](C)C(=O)N[C@H](C(=O)N[C@H](C)C(=O)N[C@@H](Cc1c[nH]cn1)C(=O)NCCc1ccc(Br)cc1)C(C)C [PTC 820] (Ac-HWAV[dA]H-{NH(4-Br-phenethyl)})	--	> 3 µM	> 3 µM	> 3 µM	> 10 µM	Growth [3]: --
	CCOC(=O)[C@H](CC(C)C)NC(=O)[C@H](Cc1c[nH]cn1)NC(=O)[C@@H](C)NC(=O)[C@@H](NC(=O)[C@H](C)NC(=O)[C@H](Cc1c[nH]c2ccccc12)NC(=O)[C@H](Cc1c[nH]cn1)NC(=O)CCCc1ccc(N(CCCl)CCCl)cc1)C(C)C [PTC 821] (Chlorambucil-HWAV[dA]HL-OEt)		> 3 µM	0.0063 ± 0.0009 µM	0.0032 ± 0.0005 µM	0.008 µM	Percent BBN Receptor Activity Recovered ([7]; 1 Min post-wash): 5%; Percent BBN Receptor Activity Recovered ([7]; 30 Min post-wash): 18%; Percent BBN Receptor Activity Recovered ([7]; 60 Min post-wash): 25%; changes in the appearance of the cells indicative of toxicity ([7]; rat pancreatic acinar cells): no changes in the appearance of the cells; Percent CCK Receptor Activity Recovered ([8]; 1 Min post-wash): 107%; Percent CCK Receptor Activity Recovered ([8]; 30 Min post-wash): 115%; Percent CCK Receptor Activity Recovered ([8]; 60 Min post-wash): 89%

Compound	IC50 [1, 9]	Ca++ effect [2]	EC50 [4]	IC50 [5]	Kd [6]	IC50 [1]	also measured
CC(C)C[C@@H]1NC(=O)[C@H](Cc2c[nH]cn2)NC(=O)[C@@H](C)NC(=O)[C@H](C(C)C)NC(=O)[C@H](C)NC(=O)[C@H](Cc2c[nH]c3ccccc23)NC(=O)[C@H](CCC(N)=O)NC(=O)[C@H](CC(N)=O)NC(=O)[C@H](Nc2ccc([N+](=O)[O-])cc2[N+](=O)[O-])CCCCNC1=O [PTC 809]	> 10 µM	--	> 3 µM	> 3 µM	> 3 µM		

Source: patent publication US5620955A, “Bombesin receptor antagonists and uses thereof” (Peptide Technologies Corporation, priority 1993, dated 1997)
